Results as given in patent US7858578B2, “Methods of inducing neuronal growth by a Fucose-α(1-2) galactose (fuc-α(1-2) gal) moiety and a lectin” (California Institute of Technology, priority 2004, dated 2010).
“Also recorded” adds a separate entry of the source.

Tests used:
hippocampal neurons = assay: Effects of deoxy-galactose sugars on neuronal morphology (anti-tau immunostaining); format: cell-based, rat
Procedure: Hippocampal neurons were plated on poly-DL-ornithine-coated glass coverslips as described above. After one day in culture, the medium was replaced with fresh medium, and the small molecules (2-dGal, 3-Deoxy-D-Galactose (3-dGal), or D-Galactose (Gal)) were added. A dose-response experiment was initially performed to determine the minimum concentration of 2-dGal needed to elicit an effect. Neurons were treated with varying concentrations of 2-dGal (1, 5, 10, 15, or 30 mM in 25 μL PBS with 475 μL of supplemented Neurobasal medium) for 2 days before immunostaining with anti-tau antibodies as described above.
Cells were treated as above under 4 different conditions: (1) no treatment for 2 days, (2) incubation with 15 mM 2-dGal for 2 days, (3) incubation with 15 mM 2-dGal for 2 days followed by incubation with 75 mM Gal for 2 days, or (4) incubation with 15 mM 3-dGal for 2 days. After adding the small molecules, cultures were incubated at 37° C., 5% CO2, then washed once with PBS, and immunostained with anti-tau antibody as described above.

[1] = tested on: Fucα(1-2)Gal epitope on glycoproteins; assay: Western blot of neuronal lysates with anti-Fucα(1-2)Gal antibody A46-B/B10; format: cell-based, rat; conditions: 30 mM, 4 days
Procedure: In addition to cells plated on coverslips, hippocampal neurons were grown in 30 mm dishes and treated with or without 30 mM 2-dGal (25 μL in PBS with 475 μL supplemented Neurobasal medium). After 4 days, cells were harvested with 2.5% trypsin, lysed with 1% boiling SDS with protease inhibitors, and cell lysates probed by Western blotting using the anti-Fucα(1-2)Gal antibody A46-B/B10 (Karsten, U., et al., G. Br. J. Cancer, 58:176-181 (1988)). Protein concentrations of the neuronal lysates were determined using the BCA Protein Assay (Pierce). Equal amounts of total protein were resolved by 10% SDS-PAGE, and proteins were transferred to PVDF membrane (Millipore) in 20 mM Tris-Cl pH 8.6/120 mM glycine/20% methanol. Western blots were blocked for 1 h with 3% periodated BSA (Glass, W. F., et al., Anal. Biochem., 115:219-224 (1981)) and rinsed with TBST (50 mM Tris-Cl pH 7.4/150 mM NaCl/0.1% Tween-20). Blots were incubated with anti-Fucα(1-2)Gal antibody A46-B/B10 (0.5 μg/mL; gift from Dr. U. Karsten, Max-Delbruck Centre for Molecular Medicine, Berlin-Buch, Germany) in TBST overnight at 4° C. with constant rocking, then rinsed and washed twice for 10 min with TBST. Immunoreactivity was visualized by incubation with a horseradish peroxidase conjugated goat anti-mouse antibody (1:2500; Pierce) in TBST for 1 h followed by a rinse and four washes of 20 min with TBST. […]

[2] = tested on: synapsin I expressed in HeLa cells; assay: Synapsin fucosylation and expression in synapsin I-transfected HeLa cells (immunoblotting); format: cell-based; conditions: deoxy sugar for 24 h
Procedure: (§1) FIG. 19. Inhibition of synapsin fucosylation using 2-dGal decreases the expression and half-life of synapsin I. (A) Effects of 2-dGal and 6-dGal on synapsin fucosylation (left panel) and synapsin expression (right panel) levels. Synapsin I-transfected HeLa cells were treated with the indicated amounts of the deoxy sugar for 24 h. Fucosylation and synapsin expression levels were measured by immunoblotting with antibody A46-B/B10 and an anti-synapsin antibody, respectively. […] Synapsin I-transfected HeLa cells were treated with 2-dGal or a vehicle control (PBS), pulse labeled with ^35S-L-cysteine and ^35S-L-methionine as described in Materials and Methods, and chased for the indicated times. ^35S-labeled synapsin levels were measured by autoradiography. (C) Inhibition of the calcium-activated protease calpain using a calpain inhibitor peptide or calpeptin protects synapsin from degradation. […] Synapsin I-transfected HeLa cells were treated with the indicated inhibitors or vehicle control (DMSO, PBS or MeOH) in the presence or absence of 2-dGal for 15 h. Following lysis, the cell extracts were analyzed for synapsin expression levels by immunoblotting.
The effects of 2-dGal on synapsin I expressed in HeLa cells were next investigated. Cell lysates containing equivalent amounts of transfected protein were resolved by SDS-PAGE, and the fucosylation and protein levels of synapsin were measured by immunoblotting, using methods described above.

[3] = tested on: synapsin I-transfected HeLa cells; assay: Synapsin degradation with inhibitors of protein degradation with or without 2-dGal; format: cell-based; conditions: 2-dGal alone, 15 h
Procedure: as §1
To investigate the molecular mechanisms responsible for synapsin degradation, cells expressing synapsin were treated with various inhibitors of protein degradation in the presence or absence of 2-dGal. Specifically, the lysosomal inhibitors bafilomycin A1 and ammonium chloride, the proteasome inhibitor MG132, and two inhibitors of the calcium-dependent protease calpain, were used.

E18 cortical neurons = assay: Expression of synaptic proteins in cultured neurons (Western blotting); format: cell-based; conditions: 15 mM for 3 days, neurons 7 DIV
Procedure: (§2) FIG. 20. […] (A) E18 cortical neurons cultured for 7 DIV were treated with 15 mM of 2-dGal or 6-dGal for 3 days. Protein lysates were analyzed by Western blotting using antibodies selective for the indicated proteins. A significant reduction in the expression of synapsin Ib was observed, while other synapse-associated proteins were unaffected by the 2-dGal treatment. (B) Neurite retraction caused by 2-dGal is reduced in synapsin-deficient mice. Neurons from synapsin I-deficient or wild-type mice were cultured for 2 days, treated with 2-dGal for 3 days, and analyzed for mean neurite length.
To examine the effects of 2-dGal on synapsin fucosylation in neurons, neurons were cultured for 7 DIV to allow for adequate expression of synapsin and subsequently treated with 2-dGal or 6-dGal for comparison. Cells were lysed and immunoblotted as described above. […] The expression of other synaptic proteins, including NSF, the synaptic vesicle protein synaptotagmin, the presynaptic plasma membrane protein syntaxin, and the postsynaptic proteins PSD-95, the AMPA receptor GluR1 subunit and spinophilin, was unchanged by the 2-dGal treatment.

[4] = tested on: neurons from synapsin I-deficient or wild-type mice; assay: 2-dGal-mediated neurite retraction in neurons from synapsin I-deficient or wild-type mice; format: cell-based; conditions: cultured 2 days, 2-dGal for 3 days; n=50; p<0.003
Procedure: as §2
Although synapsin I represents the major fucosylated protein in mature neuronal cultures, other proteins are also covalently modified by Fucα(1-2)Gal during early developmental stages (See FIG. 9A). The relative contribution of synapsin to the striking effects of 2-dGal on neuronal morphology were therefore investigated. Neurons were cultured from synapsin I-deficient (Chin, L. S., et al., Proc. Natl. Acad. Sci. USA 92:9230-9234 (1995); Drs. H. T Kao and P. Greengard, The Rockefeller University, New York, N.Y.) or wild-type mice for 2 days, treated with 2-dGal for 3 days, immunostained for tubulin, and examined by confocal fluorescence microscopy. […]

[5] = animals; cited from earlier work
hippocampal slices = conditions: cited from earlier work

O=CC[C@@H](O)[C@@H](O)[C@H](O)CO [Compound 2-dGal, 2-Deoxy-D-Galactose]
effect on neurite outgrowth (hippocampal neurons; 15 mM for 2 days): strong effect on neurite outgrowth; also recorded: severely stunted neurites and failed to form synapses; also recorded: inhibits neuronal growth | neurites with increasing concentration (hippocampal neurons; 1, 5, 10, 15 or 30 mM for 2 days): gradual decrease in neurites | cellular toxicity (trypan blue staining, adherence, morphology) (hippocampal neurons; concentrations up to 30 mM): No cellular toxicity | level of Fucα(1-2)Gal epitope on glycoproteins [1]: disrupted synthesis of the Fucα(1-2)Gal epitope on glycoproteins; also recorded: significantly reduced levels of the Fucα(1-2)Gal epitope; also recorded: diminishes expression of the Fucα(1-2)Gal epitope | fucosylation level of synapsin [2]: dramatic effect on the fucosylation level of synapsin | level of synapsin protein [2]: significant decrease in the level of synapsin protein | levels of synapsin expression [3]: significantly reduced the levels of synapsin expression | expression of other synaptic proteins (NSF, synaptotagmin, syntaxin, PSD-95, GluR1, spinophilin) (E18 cortical neurons): unchanged | expression of synapsin I (E18 cortical neurons): dramatically reduced the expression of synapsin I; also recorded: reduces synapsin I expression levels | increase of mean neurite length, synapsin knockout compared to wild-type neurons [4]: 17.4±5.2% | effect on memory [5]: reversible amnesia | effect on LTP (hippocampal slices): interferes with the maintenance of long-term potentiation
